Test [1] addresses T1, DDR1 (Homo sapiens, UniProt Q08345). Briefly: DDR1 cell based assay (PathHunter U2OS DDR1, collagen II stimulation). As to conditions: U2OS-DDR1 cells, bovine Type II Collagen stimulation. The essentials: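 Receptor activation measured by enzyme-fragment complementation luminescence in engineered U2OS cells. Compound added 30 min before overnight challenge with 20 μg/ml bovine collagen II; data scaled between vehicle and collagen-stimulated controls, IC50 derived by four-parameter variable-slope fitting.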

The target of test [2] is T2, DDR2 (Homo sapiens, UniProt Q16832).
T2 sequence (Q16832 22-855): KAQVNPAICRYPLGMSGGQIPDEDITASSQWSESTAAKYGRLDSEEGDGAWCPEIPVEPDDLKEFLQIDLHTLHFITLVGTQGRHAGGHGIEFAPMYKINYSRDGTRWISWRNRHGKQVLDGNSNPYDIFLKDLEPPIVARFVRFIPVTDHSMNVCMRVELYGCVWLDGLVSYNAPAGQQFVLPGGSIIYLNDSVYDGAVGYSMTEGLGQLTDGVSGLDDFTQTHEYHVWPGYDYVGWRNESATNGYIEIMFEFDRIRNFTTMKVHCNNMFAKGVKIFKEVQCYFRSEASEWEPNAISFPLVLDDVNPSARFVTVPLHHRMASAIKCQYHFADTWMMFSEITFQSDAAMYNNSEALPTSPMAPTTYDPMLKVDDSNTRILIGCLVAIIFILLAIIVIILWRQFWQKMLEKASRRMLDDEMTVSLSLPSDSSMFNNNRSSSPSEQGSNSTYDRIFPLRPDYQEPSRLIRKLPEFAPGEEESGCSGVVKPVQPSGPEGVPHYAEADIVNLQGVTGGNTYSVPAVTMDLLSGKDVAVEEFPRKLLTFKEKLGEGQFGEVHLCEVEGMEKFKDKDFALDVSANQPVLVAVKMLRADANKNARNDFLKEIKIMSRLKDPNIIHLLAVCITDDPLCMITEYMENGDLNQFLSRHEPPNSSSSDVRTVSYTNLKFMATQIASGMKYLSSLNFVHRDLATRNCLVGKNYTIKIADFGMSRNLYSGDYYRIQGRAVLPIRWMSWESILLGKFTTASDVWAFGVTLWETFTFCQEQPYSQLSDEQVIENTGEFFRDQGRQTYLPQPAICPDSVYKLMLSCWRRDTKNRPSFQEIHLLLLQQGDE
The experiment in a line: DDR2 LanthaScreen Europium Kinase Binding assay. As to conditions: binding affinity; IC50 converted in Ki using Cheng-Prusoff; read-out: Ki DDR2. A digest of the protocol:
(§1)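 Binding by TR-FRET tracer displacement: compounds incubated 1 h at room temperature with 5 nM DDR1 plus 20 nM Kinase Tracer 178, or 5 nM DDR2 plus 10 nM tracer, and 2 nM Eu anti-GST antibody in pH 7.5 HEPES/MgCl2/EGTA/BRIJ35 buffer. 665/615 nm ratio gave four-parameter IC50, converted to Ki via Cheng-Prusoff.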
On the technique in general: In TR-FRET formats the signal depends on donor and acceptor labels being close together.

The target in test [3] is T2, DDR2. The experiment in a line: DDR2 cell based assay (phospho-ELISA in HEK293T-DDR2 recombinant cells, collagen II stimulation). As to conditions: bovine Type II Collagen stimulation. The protocol:
The inhibition of DDR2 phosphorylation by compounds was evaluated in HEK293T-DDR2 recombinant cells by phospho-ELISA assay. Briefly, HEK293T-DDR2 cells were seeded in poly-D-lysine-coated 24-well plates at a density of 250.000 cells/well and incubated for 1.5 hours at 37° C. and 5% CO2 in DMEM+10% FBS. After that, the medium was changed to serum-free DMEM and cells were incubated for 3 hours. Then. test compounds were added at different concentrations 30 minutes before stimulation with bovine Type II Collagen at 50 μg/ml for further 3 hours. For DDR2 phospho-ELISA assay (DuoSet IC Human Phospho-DDR2; R&D Systems), protein extracts were obtained by adding 60 μl/well of lysis buffer prepared according to the manufacturer's instructions. Protein concentration in the samples was determined by BCA assay and the levels of phospho-DDR2 were determined following R&D Systems indications. Raw data were normalized to maximal inhibition control (0% for normalization) and positive control (100% for normalization; cells treated with […] collagen II) and IC50 parameters were calculated in GraphPad Prism 8.0 software, using sigmoidal dose-response curve fitting with variable slope.
A general note: In an ELISA, binding on a coated surface is turned into a signal by an enzyme label.

The target in test [4] is T1, DDR1. Briefly: DDR1 LanthaScreen Europium Kinase Binding assay. To be noted: binding affinity; IC50 converted in Ki using Cheng-Prusoff; read-out: Ki DDR1. A digest of the protocol:
as §1

A word on the IC50: it is the concentration needed to halve the response being measured. The term Ki denotes a dissociation constant, usually derived from enzyme kinetics or from competition with a known ligand.

T1 sequence (Q08345 19-913): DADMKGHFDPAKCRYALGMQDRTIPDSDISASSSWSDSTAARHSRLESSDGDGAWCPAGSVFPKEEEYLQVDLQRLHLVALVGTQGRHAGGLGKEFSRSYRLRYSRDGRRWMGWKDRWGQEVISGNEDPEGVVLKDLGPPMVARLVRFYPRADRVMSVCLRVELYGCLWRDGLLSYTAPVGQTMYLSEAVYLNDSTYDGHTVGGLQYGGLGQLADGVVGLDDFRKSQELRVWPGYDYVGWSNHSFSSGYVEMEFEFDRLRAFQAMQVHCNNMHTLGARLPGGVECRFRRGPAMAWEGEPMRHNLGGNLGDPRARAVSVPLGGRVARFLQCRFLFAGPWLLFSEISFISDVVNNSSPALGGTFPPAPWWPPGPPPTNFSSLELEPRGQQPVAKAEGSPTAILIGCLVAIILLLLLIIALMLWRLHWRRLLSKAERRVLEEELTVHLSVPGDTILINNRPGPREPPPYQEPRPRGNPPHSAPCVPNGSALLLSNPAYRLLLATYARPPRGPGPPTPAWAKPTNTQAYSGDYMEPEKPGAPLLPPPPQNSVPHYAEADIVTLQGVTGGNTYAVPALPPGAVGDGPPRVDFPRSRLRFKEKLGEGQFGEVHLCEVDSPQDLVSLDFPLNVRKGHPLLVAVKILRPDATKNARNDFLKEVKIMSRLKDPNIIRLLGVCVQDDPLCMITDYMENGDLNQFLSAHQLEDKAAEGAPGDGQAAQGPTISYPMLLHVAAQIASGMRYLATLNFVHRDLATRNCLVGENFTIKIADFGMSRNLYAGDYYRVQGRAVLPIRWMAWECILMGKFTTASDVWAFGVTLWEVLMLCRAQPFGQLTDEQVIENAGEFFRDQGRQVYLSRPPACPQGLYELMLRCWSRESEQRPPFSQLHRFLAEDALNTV

As for `CN1CCN(Cc2ccc(NC(=O)c3ccc4c(c3)N(Cc3cnc5[nH]ncc5c3)CC4)cc2C(F)(F)F)CC1` [Example 75], the IC50 in test [1] and in test [3] was less than 25 nM throughout. Also, the inhibitory constant (Ki) in test [2] and in test [4] was less than 25 nM throughout.

Consider `Cc1cn(-c2cc(NC(=O)c3ccc4c(c3)N(Cc3cnc5[nH]nc(C)c5c3)CC4)cc(C(F)(F)F)c2)cn1` [Example 7, N-(3-(4-methyl-1H-imidazol-1-yl)-5-(trifluoromethyl)phenyl)-1-((3-methyl-1H-pyrazolo[3,4-b]pyridin-5-yl)methyl)indoline-6-carboxamide], for which the IC50 was less than 25 nM in test [1] and 25 to 50 nM in test [3]. Besides, the Ki in test [2] and in test [4] was less than 25 nM in each case.

Turning to `Cc1cn(-c2cc(C(=O)Nc3ccc4c(c3)N(Cc3cnc5[nH]ncc5c3)CC4)cc(C(F)(F)F)c2)cn1` [Example 38, N-(1-((1H-pyrazolo[3,4-b]pyridin-5-yl)methyl)indolin-6-yl)-3-(4-methyl-1H-imidazol-1-yl)-5-(trifluoromethyl)benzamide], the concentration for half-maximal inhibition (IC50) in test [1] was less than 25 nM; in test [3] it was 50 to 80 nM. The inhibition constant Ki in test [2] and in test [4] was less than 25 nM in each case.

With `Cc1cn(-c2cc(NC(=O)c3ccc4c(c3)N(Cc3cnc5[nH]ccc5c3)CC4)cc(C(F)(F)F)c2)cn1` [Example 2, 1-((1H-pyrrolo[2,3-b]pyridin-5-yl)methyl)-N-(3-(4-methyl-1H-imidazol-1-yl)-5-(trifluoromethyl)phenyl)indoline-6-carboxamide], the IC50 in test [1] and in test [3] was less than 25 nM throughout. Moreover, the Ki in test [2] and in test [4] was less than 25 nM in each case.

With `Cc1cn(-c2cc(NC(=O)c3ccc4c(c3)N(Cc3cnc5cnccn35)CC4C)cc(C(F)(F)F)c2)cn1` (single isomer, unassigned) [Example 27, 1-(imidazo[1,2-a]pyrazin-3-ylmethyl)-3-methyl-N-(3-(4-methyl-1H-imidazol-1-yl)-5-(trifluoromethyl)phenyl)indoline-6-carboxamide], the IC50 in test [1] and in test [3] was less than 25 nM each time. Besides, the Ki in test [2] and in test [4] was less than 25 nM in each case.

Consider `CC1CN(Cc2cnc3cnccn23)c2cc(C(=O)Nc3cccc(C(F)(F)F)c3)ccc21` (stereo not drawn) [Example 31, 1-(imidazo[1,2-a]pyrazin-3-ylmethyl)-3-methyl-N-(3-(trifluoromethyl)phenyl)indoline-6-carboxamide], for which the IC50 in test [1] was less than 25 nM; in test [3], 50 to 80 nM. Also, the Ki in test [2] and in test [4] was less than 25 nM each time.

On to `CN1CCN(Cc2ccc(NC(=O)c3ccc4c(c3)N(Cc3cnc5[nH]nc(N6CCOCC6)c5c3)CC4)cc2C(F)(F)F)CC1` [Example 89, N-[4-[(4-methylpiperazin-1-yl)methyl]-3-(trifluoromethyl)phenyl]-1-[(3-morpholino-1H-pyrazolo[3,4-b]pyridin-5-yl)methyl]indoline-6-carboxamide], for which the half-inhibitory concentration (IC50) in test [1] was less than 25 nM; in test [3], 50 to 80 nM. Further, the Ki in test [2] and in test [4] was less than 25 nM each time.

As for `Cc1cn(-c2cc(NC(=O)c3ccc4c(c3)N(Cc3cnc5[nH]ncc5c3)CC4)cc(C(F)(F)F)c2)cn1` [Example 6, 1-((1H-pyrazolo[3,4-b]pyridin-5-yl)methyl)-N-(3-(4-methyl-1H-imidazol-1-yl)-5-(trifluoromethyl)phenyl)indoline-6-carboxamide], the values for the 50% inhibitory concentration (IC50) in test [1] and in test [3] were less than 25 nM and 50 to 80 nM, respectively. In addition, the Ki in test [2] and in test [4] was less than 25 nM throughout.

As to `O=C(Nc1cccc(C(F)(F)F)c1)c1ccc2c(c1)N(Cc1cnc3[nH]ncc3c1)CC2` [Example 35, 1-((1H-pyrazolo[3,4-b]pyridin-5-yl)methyl)-N-(3-(trifluoromethyl)phenyl)indoline-6-carboxamide], the IC50 in test [1] and in test [3] was less than 25 nM throughout. For the same compound, the Ki in test [2] and in test [4] was less than 25 nM in each case.

As for `O=C(Nc1cccc(OC(F)(F)F)c1)c1ccc2c(c1)N(Cc1cnc3[nH]ncc3c1)CC2` [Example 37, 1-((1H-pyrazolo[3,4-b]pyridin-5-yl)methyl)-N-(3-(trifluoromethoxy)phenyl)indoline-6-carboxamide], the IC50 in test [1] and in test [3] was less than 25 nM each time. The inhibitory constant (Ki) in test [2] and in test [4] was less than 25 nM each time.

As to `Cc1cn(-c2cc(NC(=O)c3ccc4c(c3)N(C(=O)c3cnc5[nH]ncc5c3)CC4C)cc(C(F)(F)F)c2)cn1` (stereo not drawn) [Example 28, 3-methyl-N-(3-(4-methyl-1H-imidazol-1-yl)-5-(trifluoromethyl)phenyl)-1-(1H-pyrazolo[3,4-b]pyridine-5-carbonyl)indoline-6-carboxamide], the 50% inhibitory concentration (IC50) in test [1] was less than 25 nM; in test [3], 25 to 50 nM. Further, the Ki in test [2] was 25 to 50 nM; in test [4], less than 25 nM.

Regarding `O=C(Nc1cc(F)cc(C(F)(F)F)c1)c1ccc2c(c1)N(Cc1cnc3ccccn13)CC2` [Example 59, N-(3-fluoro-5-(trifluoromethyl)phenyl)-1-(imidazo[1,2-a]pyridin-3-ylmethyl)indoline-6-carboxamide], the half-maximal inhibitory concentration (IC50) in test [1] was less than 25 nM; in test [3], 50 to 80 nM. In addition, the Ki in test [2] and in test [4] was less than 25 nM each time.

For `Cc1cn(-c2cc(NC(=O)c3ccc4c(c3)N(Cc3ccc5[nH]cnc5c3)CC4)cc(C(F)(F)F)c2)cn1` [Example 4, 1-((1H-benzo[d]imidazol-5-yl)methyl)-N-(3-(4-methyl-1H-imidazol-1-yl)-5-(trifluoromethyl)phenyl)indoline-6-carboxamide], in test [1], the half-inhibitory concentration (IC50) was in the range of 25 to 50 nM. The inhibition constant Ki in test [2] and in test [4] was less than 25 nM throughout.

In test [1], `CC(C)(C)c1cc(NC(=O)c2ccc3c(c2)N(Cc2cnc4cnccn24)CC3)on1` [Example 79, N-(3-(tert-butyl)isoxazol-5-yl)-1-(imidazo[1,2-a]pyrazin-3-ylmethyl)indoline-6-carboxamide] registered a half-inhibitory concentration (IC50) of 50 to 80 nM. Also, the inhibitory constant (Ki) in test [2] and in test [4] was less than 25 nM throughout.

Regarding `CC1CN(Cc2cnc3[nH]ccc3c2)c2cc(C(=O)Nc3cccc(C(F)(F)F)c3)ccc21` (stereo not drawn) [Example 32, 1-((1H-pyrrolo[2,3-b]pyridin-5-yl)methyl)-3-methyl-N-(3-(trifluoromethyl)phenyl)indoline-6-carboxamide], in test [1], the half-inhibitory concentration (IC50) was less than 25 nM. In addition, the Ki in test [2] and in test [4] was 25 to 50 nM in each case.

The compound `Cn1nc(NC(=O)c2ccc3c(c2)N(Cc2cnc4cnccn24)CC3)cc1C(C)(C)C` [Example 87, N-(5-(tert-butyl)-1-methyl-1H-pyrazol-3-yl)-1-(imidazo[1,2-a]pyrazin-3-ylmethyl)indoline-6-carboxamide] gave a half-inhibitory concentration (IC50) in test [1] of 25 to 50 nM. The inhibitory constant (Ki) in test [2] and in test [4] was less than 25 nM throughout.

Compound `Cc1cn(-c2cc(NC(=O)c3ccc4c(c3)N(Cc3cnc5[nH]ncc5c3)CC4C)cc(C(F)(F)F)c2)cn1` (stereo not drawn) [Example 24, 1-((1H-pyrazolo[3,4-b]pyridin-5-yl)methyl)-3-methyl-N-(3-(4-methyl-1H-imidazol-1-yl)-5-(trifluoromethyl)phenyl)indoline-6-carboxamide] displayed an IC50 in test [1] of less than 25 nM. Moreover, the Ki in test [2] and in test [4] was 25 to 50 nM each time.

Values taken from US20240217967A1, “INDOLINE DERIVATIVES AS DDRS INHIBITORS” (CHIESI FARMACEUTICI S.P.A., priority 2021, published 2024).
